What was measured:
[1] = system: Ctenocephalides Felis (Cat Flea); assay: Activity in vitro against Ctenocephalides felis (cat flea), Assay A; details: adult fleas fed on treated blood for 24 h; for pest or weed control at 100 ppm: Ctenocephalides felis, dead fleas counted, read-out: efficacy (EC80)
Method: Activity In Vitro Against Ctenocephalides Felis (Cat Flea)—Assay A
A mixed adult population of fleas is placed in a suitably formatted 96-well plate allowing fleas to access and feed on treated blood via an artificial feeding system. Fleas are fed on treated blood for 24 h, after which the compound effect is recorded. Insecticidal activity is determined on the basis of the number of dead fleas recovered from the feeding system.

Lice (Polyplax serrata) = assay: Activity in vivo against lice (Polyplax serrata) in mice (topical); details: pour-on application, live lice on day +4 and +14, Henderson & Tilton formula, read-out: efficacy (EC90)
Method: Activity In Vivo Against Lice (Polyplax serrata) in Mice (Topical) Mice naturally infected with P. serrata are treated with the formulated test compound on day 0 by pour-on application. On day +4 and +14, efficacy is evaluated by counting the number of live lice under a binocular. Efficacy at the two time points is expressed as a comparison of lice numbers counted on the same mouse before treatment, using the Henderson & Tilton formula, taking also into account lice numbers found on mice treated with the empty formulation (placebo group): [formula] n=number of lice, T=treated group, Co=control/placebo group.

[2] = system: Rhipicephalus sanguineus Nymphs; assay: Activity in vivo against Rhipicephalus sanguineus nymphs on Mongolian gerbils; details: topical, 0 h, pour on application day 0, tick number reduction vs placebo, Abbott's formula, read-out: efficacy (EC90)
Method: On day 0, gerbils are treated with the test compound at a given dose by pour on application. On day +1 (+2), the animals are infested with nymphs of R. sanguineus. Ticks are left on the animals until full repletion. Seven days after infestation nymphs dropped off fully engorged are collected and counted. They are kept until molting to also evaluate growth regulating activity of the test compound. Efficacy in killing (and growth regulating) is expressed as a tick number (and molted tick number) reduction in comparison with a placebo treated group, using the Abbott's formula:
n=number of live ticks. T=treated group. Co=control/placebo group.

[3] = system: Rhipicephalus sanguineus (Dog Tick); assay: Activity in vitro against Rhipicephalus sanguineus (dog tick), Assay A, contact test; details: adult ticks; for pest or weed control at 100 ppm: Rhipicephalus sanguineus, 168 h, 28° C. and 80% relative humidity for 7 days, read-out: efficacy (EC80)
Method: Activity In Vitro Against Rhipicephalus sanguineus (Dog Tick)—Assay A
A contact test is performed by pre-coating microplate with serial dilution of compound allowing evaluating anti-parasitic activity by contact against ticks. A mixed adult tick population is then distributed to each well of the plate and incubated at 28° C. and 80% relative humidity for 7 days, during which the effect of the test compound is monitored. Acaricidal activity is confirmed if and when adult ticks are dead.

[4] = system: Lucilla Cuprina (Australian sheep blowfly); assay: Activity in vitro against Lucilla cuprina (Australian sheep blowfly), Assay A; details: eggs on agar-based medium; for pest or weed control at 32 ppm: Lucilia cuprina, 96 h, 4 days at 28° C. and 60% relative humidity, read-out: efficacy (EC80)
Method: Activity in vitro against Lucilla Cuprina (Australian sheep blowfly)—Assay A
Freshly laid blowfly eggs are used to seed a suitably formatted microplate containing the test substances to be evaluated for antiparasitic activity. Each compound is tested by serial dilution in order to determine its minimum efficacy dose. The test compounds are embedded in an agar-based nutritive medium allowing the full development of the eggs into 3rd instar larvae. The incubation lasts for 4 days at 28° C. and 60% relative humidity. Egg-hatching and ensuing larval development are also recorded to identify a possible growth-regulating activity.

[5] = system: Engorged Female Rhipicephalus microplus (Cattle Tick); assay: Activity in vitro against engorged female Rhipicephalus microplus (cattle tick), contact test; details: 672 h, organophosphorous-resistant Ultimo strain, evaluation 28 days later on mortality, oviposition and hatched larvae, read-out: efficacy (EC80)
Method: Activity In Vitro Against Engorged Female Rhipicephalus microplus (Cattle Tick)
A contact test is performed by pre-coating 6-well microplates with serial dilution of the compound to be evaluated for anti-parasitic activity. 10 engorged female ticks of the organophosphorous-resistant Ultimo strain are distributed to each well in triplicates. Plates are then incubated at 28° C. and 80% relative humidity. Evaluation takes place 28 days later based on mortality, oviposition and hatched larvae. […] Activity In Vivo Against Rhipicephalus sanguineus Nymphs on Mongolian Gerbils (Meriones unguiculatus) (Spray Application)

| Structure (SMILES) | pest or weed control at 100 ppm [1] [%] | inhibition in vivo at 32 mg/kg (Lice (Polyplax serrata)) [%] | inhibition in vivo at 32 mg/kg [2] [%] | pest or weed control at 100 ppm [3] [%] | pest or weed control at 32 ppm [4] [%] | pest or weed control at 200 ppm [5] [%] | EC80 [1] [ppm] | EC50 ([3]; 7 days) [ppm] | EC50 ([4]; 4 days at 28° C.) [ppm] |
| --- | --- | --- | --- | --- | --- | --- | --- | --- | --- |
| CC(c1ncnn1-c1ccccn1)N(CC1CC1)C(=O)c1cc(C(F)(F)F)cc(C(F)(F)F)c1 (stereo not drawn) [Example 1, N-(Cyclopropylmethyl)-N-[1-[2-(2-pyridyl)-1,24-triazol-3-yl]ethyl]-3,5-bis(trifluoromethyl)benzamide] | > 80 | > 90 | > 90 | > 80 | > 80 | > 80 | – | – | – |
| CC(c1ncnn1-c1ccccn1)N(CC1CC1)C(=O)c1cc(Cl)cc(OC(F)(F)F)c1 (stereo not drawn) [Example 10, 3-Chloro-N-(cyclopropylmethyl)-N-[1-[2-(2-pyridyl)-1,2,4-triazol-3-yl]ethyl]-5-(trifluoromethoxy)benzamide] | > 80 | > 90 | > 90 | > 80 | > 80 | > 80 | – | – | – |
| CC(c1ncnn1-c1ccccn1)N(CCF)C(=O)c1cc(C(F)(F)F)cc(C(F)(F)F)c1 (stereo not drawn) [Example 11, N-(2-Fluoroethyl)-N-[1-[2-(2-pyridyl)-1,2,4-triazol-3-yl]ethyl]-3,5-bis(trifluoromethyl)benzamide] | > 80 | > 90 | > 90 | > 80 | > 80 | > 80 | – | – | – |
| CC(c1ncnn1-c1ccccn1)N(CCC(F)(F)F)C(=O)c1cc(C(F)(F)F)cc(C(F)(F)F)c1 (stereo not drawn) [Example 12, N-[1-[2-(2-Pyridyl)-1,2,4-triazol-3-yl]ethyl]-3,5-bis(trifluoromethyl)-N-(3,3,3-trifluoropropyl)benzamide] | – | > 90 | > 90 | > 80 | > 80 | > 80 | – | – | – |
| CC(c1ncnn1-c1ccccn1)N(CC1CC1(F)F)C(=O)c1cc(C(F)(F)F)cc(C(F)(F)F)c1 (stereo not drawn) [Example 16, N-[(2,2-Difluorocyclopropyl)methyl]-N-[1-[2-(2-pyridyl)-1,2,4-triazol-3-yl]ethyl]-3,5-bis(trifluoromethyl)benzamide] | > 80 | > 90 | > 90 | – | > 80 | > 80 | – | – | – |
| C#CCN(C(=O)c1cc(Cl)cc(OC(F)(F)F)c1)C(C)c1ncnn1-c1ccccn1 (stereo not drawn) [Example 18, 3-Chloro-N-prop-2-ynyl-N-[1-[2-(2-pyridyl)-1,2,4-triazol-3-yl]ethyl]-5-(trifluoromethoxy)benzamide] | > 80 | > 90 | > 90 | – | > 80 | > 80 | 10 | – | – |
| CC(c1ncnn1-c1ncccn1)N(CCF)C(=O)c1cc(C(F)(F)F)cc(C(F)(F)F)c1 (stereo not drawn) [Example 19, N-(2-Fluoroethyl)-N-[1-(2-pyrimidin-2-yl-1,2,4-triazol-3-yl]ethyl]-3,5-bis(trifluoromethyl)benzamide] | > 80 | > 90 | > 90 | > 80 | > 80 | > 80 | – | – | – |
| CC(c1ncnn1-c1ncccn1)N(CCC(F)(F)F)C(=O)c1cc(C(F)(F)F)cc(C(F)(F)F)c1 (stereo not drawn) [Example 20, N-[1-(2-Pyrimidin-2-yl-1,2,4-triazol-3-yl)ethyl]-3,5-bis(trifluoromethyl)-N-(3,3,3-trifluoropropyl)benzamide] | > 80 | > 90 | > 90 | > 80 | > 80 | > 80 | – | – | – |
| C#CCN(C(=O)c1cc(C(F)(F)F)cc(C(F)(F)F)c1)C(C)c1ncnn1-c1ncccn1 (stereo not drawn) [Example 35, N-Prop-2-ynyl-N-[1-(2-pyrimidin-2-yl-1,2,4-triazol-3-yl)ethyl]-3,5-bis(trifluoromethyl)benzamide] | > 80 | > 90 | > 90 | > 80 | > 80 | > 80 | – | – | – |
| CC(c1ncnn1-c1ncccn1)N(CC1CC1)C(=O)c1cc(Cl)cc(OC(F)(F)F)c1 (stereo not drawn) [Example 37, 3-chloro-N-(cyclopropylmethyl)-N-[1-(2-pyrimidin-2-yl-1,2,4-triazol-3-yl)ethyl]-5-(trifluoromethoxy)benzamide] | > 80 | > 90 | > 90 | > 80 | > 80 | > 80 | – | – | – |
| COc1cnc(-n2ncnc2C(C)N(CC2CC2)C(=O)c2cc(C(F)(F)F)cc(C(F)(F)F)c2)nc1 (stereo not drawn) [Example 39, N-(Cyclopropylmethyl)-N-[1-[2-(5-methoxypyrimidin-2-yl)-1,2,4-triazol-3-yl]ethyl]-3,5-bis(trifluoromethyl)benzamide] | > 80 | > 90 | > 90 | > 80 | > 80 | > 80 | – | – | – |
| CC(c1ncnn1-c1ncccn1)N(CC1CC1)C(=O)c1cc(Cl)cc(C(F)(F)F)c1 (stereo not drawn) [Example 40, 3-Chloro-N-(cyclopropylmethyl)-N-[1-(2-pyrimidin-2-yl-1,2,4-triazol-3-yl)ethyl]-5-(trifluoromethyl)benzamide] | > 80 | > 90 | > 90 | > 80 | > 80 | > 80 | – | – | – |
| C#CCN(C(=O)c1cc(Cl)cc(C(F)(F)F)c1)C(C)c1ncnn1-c1ncccn1 (stereo not drawn) [Example 41, 3-Chloro-N-prop-2-ynyl-N-[1-(2-pyrimidin-2-yl-1,2,4-triazol-3-yl)ethyl]-5-(trifluoromethyl)benzamide] | > 80 | > 90 | > 90 | > 80 | > 80 | > 80 | – | 32 | 1 |
| CC(c1ncnn1-c1ncccn1)N(CC1CC1)C(=O)c1cc(C(F)(F)F)cc(C(F)(F)F)c1 (stereo not drawn) [Example 48, N-(Cyclopropylmethyl)-N-[1-(2-pyrimidin-2-yl-1,2,4-triazol-3-yl)ethyl]-3,5-bis(trifluoromethyl)benzamide] | > 80 | > 90 | > 90 | > 80 | > 80 | > 80 | – | – | – |

— patent US10287276B2, “Heteroaryl-1,2,4-triazole and heteroaryl-tetrazole compounds for controlling ectoparasites” (Elanco Tiergesundheit AG, priority 2016, dated 2019)
